Measurements: publication PMC6179904 (Developmental Cell, 2018)

Tested on: Jurkat T-cells
Type: cell-based, human

Row | SMILES | LCK localization ratio (LR) at the immune synapse
1 | Nc1ncnc2c1c(-c1ccc(Oc3ccccc3)cc1)cn2C1CCCC1 [LCK inhibitor (CAS 213743-31-8)] | 1.05
2 | CCOC(=O)N1CCC(Nc2c(NCCN3CCN(c4cccc(C(F)(F)F)c4)CC3)c(=O)c2=O)CC1 [squarunkin A] | 0.94
